Test results taken from patent publication US7094869B2, “Low molecular weight peptidomimetic growth hormone secretagogues” (Genentech, Inc., priority 1994, dated 2006).
Read-outs that look alike come from different tables or passages of the source. Non-standard residues stand in square brackets, D forms with d. Residues, ends and D or L forms follow the SMILES beside them. ξ: configuration not given here. dNMe2Nal = CN[C@H](Cc1ccc2ccccc2c1)C(=O)O; d2Nal = N[C@H](Cc1ccc2ccccc2c1)C(=O)O; ξNMe2Nal = CNC(Cc1ccc2ccccc2c1)C(=O)O; hPhe = N[C@@H](CCc1ccccc1)C(=O)O; Inp = O=C(O)C1CCNCC1; ξK = NCCCCC(N)C(=O)O; Ahp = NCCCCCCC(=O)O; Ava = NCCCCC(=O)O

Legend:
rat pituitary cells = rat pituitary cells (Rattus norvegicus, UniProt O08725); conditions: read-out: PIT Cell EC50, GH release, 15 min incubation
Sequence of rat pituitary cells (O08725 whole entry, the tested form may be a part): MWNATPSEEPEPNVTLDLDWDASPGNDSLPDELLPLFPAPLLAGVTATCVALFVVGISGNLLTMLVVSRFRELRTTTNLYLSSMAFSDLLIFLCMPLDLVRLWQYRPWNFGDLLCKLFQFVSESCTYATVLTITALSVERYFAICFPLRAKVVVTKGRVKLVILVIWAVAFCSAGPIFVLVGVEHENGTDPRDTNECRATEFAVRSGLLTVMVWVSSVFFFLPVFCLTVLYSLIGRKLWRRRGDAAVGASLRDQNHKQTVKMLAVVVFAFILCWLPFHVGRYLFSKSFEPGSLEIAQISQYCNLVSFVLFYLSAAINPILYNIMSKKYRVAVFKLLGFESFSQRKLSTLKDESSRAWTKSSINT
Procedure: Pituitaries from ten rats were removed, the posterior pituitary discarded and the anterior pituitary placed in Hanks' Balanced Salt Solution (HBSS: without calcium chloride, w/o magnesium chloride, w/o magnesium sulfate; Gibco) containing 20 mM HEPES (Gibco) and 100 U/ml penicillin streptomycin (PS: JRH Biosciences). Under sterile conditions, pituitaries were rinsed twice then minced into small fragments with a razor blade. […] After the incubation, fragments were triturated to yield small clumps and single cells. The cells were centrifuged 1000× g for 5 min, resuspended, counted and plated at a final cell concentration of 100,000 cells/ml. Incubation media was DME low glucose media w/NaHCO3 (Gibco) containing 20 mM hepes, 100 U/ml PS and 10% FBS (Hyclone A-111-L). Cells were plated at 0.5 ml per well in 48 well plates (Falcon) and incubated at 37° C. in 5% C02 for three days. For challenges to determine release of other pituitary hormones cells were plated at 200,000 cells per ml with 2 ml per well of a Swell plate (Corning). Challenge: A (inip)bbFK-NH2 stock (or other GHRP) concentration of 1 mM was made in DMSO and diluted with warmed media approximately 30 min prior to use. The highest concentration of DMSO in media was 0.1%. Stock solutions (1 mM) of rat GHRH, somatostatin (Sigma) and GHRP antagonist HwkWfK were made fresh in media and diluted appropriately. The media used in all challenges and washing steps was DME low glucose with 20 mM Hepes, 100 U/ml PS, 10% FBS. Media was warmed to 37° C. and gassed by placing it into the incubator prior to challenge. On day three, the media was discarded and fresh media (approximately 1 ml) added for the first of three washes. After the last wash, the plate was placed back in the incubator for a 15 min pre-incubation. Then cells were washed 2× (with warmed and gassed media) and fresh 0.5 ml media were added for the second 15 min. pre-incubation. After the second pre-incubation cells were washed 2× as above and 0.5 ml of control and test solutions were added for a final 15 min incubation. After this incubation, the media were removed for subsequent GH ELISA. GH ELISA: A two-site ELISA was used to determine rat GH concentration in the media. […] After blocking and washing, standard (rat GH reference preparation: Parlow) and challenge media is diluted 1:20 prior to GH assay were added for a 1 hr room temperature incubation. STATISTICS: The mean for each group was determined and analyzed by one-way analysis of variance with a post-hoc Student-Newman-Keuls. Significance is defined as P<0.05. The EC50 was calculated using a 4-parameter curve-fit program (Kaleidagraph). Three to four independent EC50s were used to derive the mean and SEM. RIA of pituitary hormones: LH, FSH, TSH, and Prolactin were determined with commercially available kits from Amersham, and ACTH levels were determined by a RIA kit from ICN. CALCIUM FLUX EXPERIMENT: Pituitary cells were plated on fibronectin (Collaborative Research) coated two-chambered slide wells (Nunc). After four days in monolayer culture cells were rinsed three times with HBSS (Gibco) in 1% BSA and 15 mM HEPES and then incubated for 30 min at 37° C. with 5 μM Indo-1 AM (Molecular Probes, Eugene) in HBSS also containing 1% pluronic F127 (Molecular Probes). The cells were rinsed once and fresh media added for RT incubation. […] C^++ flux was imaged with a Meridian ACAS 570 using stage scanning at 21 second intervals.

growth hormone secretion = assay: GHRP induced growth hormone secretion, intravenous administration (Rat IV); type: in vivo; conditions: iv injection, serum GH 10 min after injection
Procedure: Immature weanling female Sprague Dawley rats were purchased from Charles River Labs (Portage, […].) and group housed with water and food available ad libitum. When the rats were 24-30 days old (weighing 50-90 g) they were anesthetized with pentobarbitone (4 mg in 0.5 ml, approximately 60 mg/kg) given by intraperitoneal injection. The rats were then placed briefly on a heated pad, to distend their tail veins, and given an intravenous tail vein injection of the peptides 20 minutes after receiving the anesthetic. The intravenous injection was of 0.1 ml using a 1 ml syringe. The injections contained graded doses of peptides or the vehicle (vehicle for all peptides given intravenously was a buffer of 20 mM sodium acetate, 45 g/l mannitol, pH 5.0). Ten minutes after the intravenous injection blood was taken by cardiac puncture, using a 3 ml syringe, and the rats were then sacrificed.
The blood was then clotted on ice, centrifuged, serum decanted and frozen for subsequent analysis using the rat GH ELISA described elsewhere in the application. For the rat GH ELISA the serum was diluted 1:50 or 1:250, depending on the expected serum GH concentrations achieved, and assayed in duplicate.

[1] = Table IV, formula III compounds
[2] = Table III, formula IV compounds

Row | Structure (SMILES) | EC50 (rat pituitary cells; [2]) | RAT IV ED50 (growth hormone secretion; Table III) | further results
1 | NCCCCC(=O)N[C@H](Cc1ccc2ccccc2c1)C(=O)N[C@H](Cc1ccc2ccccc2c1)C(=O)N[C@@H](Cc1ccccc1)C(N)=O [(Ava) b b F amide] (H-[Ava][d2Nal][d2Nal]F-NH2) | – | – | EC50 (rat pituitary cells; [1]): 0.0171 µM; RAT IV ED50 (growth hormone secretion; Table IV): 100 µg
2 | NCCCCC(=O)N[C@H](Cc1ccc2ccccc2c1)C(=O)N[C@H](Cc1ccc2ccccc2c1)C(=O)N[C@@H](Cc1ccccc1)C(=O)N[C@H](CCCCN)C(N)=O [(Ava) b b F k amide] (H-[Ava][d2Nal][d2Nal]F[dK]-NH2) | 0.017 µM | 33.3 µg | –
3 | NCCCCC(=O)N[C@H](Cc1ccc2ccccc2c1)C(=O)N[C@H](Cc1ccc2ccccc2c1)C(=O)N[C@@H](Cc1ccccc1)C(=O)N[C@H](CC(N)=O)C(N)=O [(Ava) b b F n amide] (H-[Ava][d2Nal][d2Nal]F[dN]-NH2) | 0.01 µM | 12.5 µg | –
4 | NCCCCC(=O)N[C@H](Cc1ccc2ccccc2c1)C(=O)N[C@H](Cc1ccc2ccccc2c1)C(=O)N[C@@H](CCc1ccccc1)C(=O)N[C@@H](CCCCN)C(N)=O [(Ava) b b hF K amide] (H-[Ava][d2Nal][d2Nal][hPhe]K-NH2) | 0.005 µM | 50 µg | –
5 | CN(C(=O)[C@@H](Cc1ccc2ccccc2c1)NC(=O)CCCCN)[C@H](Cc1ccc2ccccc2c1)C(=O)N[C@@H](Cc1ccccc1)C(=O)N[C@@H](CCCCN)C(N)=O [(Ava) b nmb F K amide] (H-[Ava][d2Nal][dNMe2Nal]FK-NH2) | 0.0038 µM | 100 µg | –
6 | NCCCCC(=O)N[C@H](Cc1ccc2ccccc2c1)C(=O)N[C@H](Cc1c[nH]c2ccccc12)C(=O)N[C@@H](Cc1ccccc1)C(=O)N[C@@H](CCCCN)C(N)=O [(Ava) b w F K amide] (H-[Ava][d2Nal][dW]FK-NH2) | 0.0046 µM | 11.8 µg | –
7 | NCCCCNC(=O)[C@H](Cc1ccc2ccccc2c1)NC(=O)[C@H](Cc1ccc2ccccc2c1)NC(=O)[C@@H](Cc1ccccc1)NC(=O)CCCCN [(Ava) f B B bam, (5-aminovaleryl)-DPhe-βNal-βNal-[N-(4-aminobutyl)] amide] | – | – | EC50 (rat pituitary cells; Table VI, retroinverso compounds of formula V): 0.022 µM; RAT IV ED50 (growth hormone secretion; Table VI): 100 µg
8 | NCCCCC(=O)N[C@H](Cc1ccccc1)C(=O)N[C@H](Cc1c[nH]c2ccccc12)C(=O)N[C@@H](Cc1ccccc1)C(N)=O [(Ava) f w F amide] (H-[Ava][dF][dW]F-NH2) | – | – | EC50 (rat pituitary cells; [1]): > 0.3 µM; RAT IV ED50 (growth hormone secretion; Table IV): 1000 µg
9 | CN(C(=O)CCCCN)C(Cc1ccc2ccccc2c1)C(=O)N[C@H](Cc1ccc2ccccc2c1)C(=O)N[C@@H](Cc1ccccc1)C(=O)NC(CCCCN)C(N)=O (stereo partly drawn) [(Ava) nmb b F K amide, (5-aminovaleryl)-(N-Me-DβNal)-DβNal-Phe-Lys-amide] (H-[Ava][ξNMe2Nal][d2Nal]F[ξK]-NH2) | 0.0018 µM | 0.4 µg | –
10 | CN(C(=O)CCCCN)[C@H](Cc1ccc2ccccc2c1)C(=O)N[C@H](Cc1ccc2ccccc2c1)C(=O)N[C@@H](Cc1ccccc1)C(N)=O [(Ava) nmb b F amide] (H-[Ava][dNMe2Nal][d2Nal]F-NH2) | – | – | EC50 (rat pituitary cells; [1]): 0.0016 µM; RAT IV ED50 (growth hormone secretion; Table IV): 20 µg
11 | NCCCCC(=O)N[C@H](Cc1c[nH]c2ccccc12)C(=O)N[C@H](Cc1c[nH]c2ccccc12)C(=O)N[C@@H](Cc1ccccc1)C(=O)N[C@@H](CCCCN)C(N)=O [(Ava) w w F K amide] (H-[Ava][dW][dW]FK-NH2) | 0.013 µM | 5 µg | –
12 | NCCCCCCC(=O)N[C@H](Cc1ccc2ccccc2c1)C(=O)N[C@H](Cc1ccc2ccccc2c1)C(=O)N[C@@H](Cc1ccccc1)C(=O)N[C@@H](CCCCN)C(N)=O [(ahp) b b F K amide] (H-[Ahp][d2Nal][d2Nal]FK-NH2) | 0.0343 µM | 100 µg | –
13 | COC(=O)[C@@H](Cc1ccc2ccccc2c1)NC(=O)[C@@H](Cc1ccc2ccccc2c1)NC(=O)C1CCNCC1 [(imp) b b Me ester] (H-[Inp]-[d2Nal]-[d2Nal]-OMe) | – | – | EC50 (rat pituitary cells; Table V, formula II compounds): 0.005 µM; RAT IV ED50 (growth hormone secretion; Table V): 100 µg
14 | NC[C@H](Cc1ccc2ccccc2c1)NC(=O)[C@@H](Cc1ccc2ccccc2c1)NC(=O)C1CCNCC1 [(inip) b Bmn] | – | – | EC50 (rat pituitary cells; Table V, formula II compounds): 0.036 µM; RAT IV ED50 (growth hormone secretion; Table V): 20 µg
